From ChEMBL document CHEMBL4507276 (2021)

Tests used:
[1] = target: T1, Muscarinic acetylcholine receptor M1 (Homo sapiens) (UniProt P11229); experiment: M1/HU Eurofins-Panlabs selectivity data (BI); details: Compound concentration 10.0 uM
T1 sequence (whole entry): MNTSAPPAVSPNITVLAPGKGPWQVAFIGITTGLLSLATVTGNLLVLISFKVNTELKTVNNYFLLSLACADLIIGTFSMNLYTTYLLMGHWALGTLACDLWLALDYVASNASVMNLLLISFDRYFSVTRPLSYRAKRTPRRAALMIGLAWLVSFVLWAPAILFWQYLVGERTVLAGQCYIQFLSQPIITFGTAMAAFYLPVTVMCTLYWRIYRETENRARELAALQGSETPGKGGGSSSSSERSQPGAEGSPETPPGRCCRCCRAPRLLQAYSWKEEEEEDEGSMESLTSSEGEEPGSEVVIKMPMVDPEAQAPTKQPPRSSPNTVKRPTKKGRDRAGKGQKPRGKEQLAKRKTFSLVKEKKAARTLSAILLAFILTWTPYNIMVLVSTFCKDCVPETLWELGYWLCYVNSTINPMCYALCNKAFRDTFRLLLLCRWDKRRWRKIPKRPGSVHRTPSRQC

[2] = target: Calcium/calmodulin-dependent protein kinase type II subunit delta (Homo sapiens) (UniProt Q13557); experiment: CAMK2D Invitrogen selectivity data (BI); details: Compound concentration 3.0 uM
[3] = target: Mitogen-activated protein kinase 14 (Homo sapiens) (UniProt Q16539); experiment: MAPK14P38A Invitrogen selectivity data (BI); details: Compound concentration 3.0 uM
[4] = target: Protein kinase C alpha type (Mus musculus) (UniProt P20444); experiment: PHORBOLE/M Eurofins-Panlabs selectivity data (BI); details: Compound concentration 10.0 uM
[5] = target: Platelet-activating factor receptor (Homo sapiens) (UniProt P25105); experiment: PAF Cerep selectivity data (BI); details: filed as agonist, Compound concentration 20.0 uM
[6] = target: Serine/threonine-protein kinase PAK 2 (Homo sapiens) (UniProt Q13177); experiment: PAK2 Invitrogen selectivity data (BI); details: Compound concentration 3.0 uM
[7] = target: T2, 5-hydroxytryptamine receptor 1A (Homo sapiens) (UniProt P08908); experiment: 5HT1A/HU Eurofins-Panlabs selectivity data (BI); details: Compound concentration 10.0 uM
T2 sequence (whole entry): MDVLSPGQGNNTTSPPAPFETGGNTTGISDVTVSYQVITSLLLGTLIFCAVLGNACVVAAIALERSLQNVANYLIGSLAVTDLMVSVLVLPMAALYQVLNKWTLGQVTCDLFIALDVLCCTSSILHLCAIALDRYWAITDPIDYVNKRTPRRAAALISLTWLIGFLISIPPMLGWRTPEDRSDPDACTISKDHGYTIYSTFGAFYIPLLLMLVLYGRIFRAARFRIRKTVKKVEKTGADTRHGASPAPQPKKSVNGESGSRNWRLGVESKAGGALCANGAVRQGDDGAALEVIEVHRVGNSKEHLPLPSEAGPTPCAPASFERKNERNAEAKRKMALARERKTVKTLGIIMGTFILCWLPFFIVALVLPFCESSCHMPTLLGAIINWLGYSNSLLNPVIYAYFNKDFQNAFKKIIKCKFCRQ

[8] = target: Endothelin receptor type B (Homo sapiens) (UniProt P24530); experiment: ETB/H Cerep selectivity data (BI); details: Compound concentration 20.0 uM
[9] = target: Serine/threonine-protein kinase PLK1 (Homo sapiens) (UniProt P53350); experiment: PLK1 Invitrogen selectivity data (BI); details: Compound concentration 3.0 uM
[10] = target: T3, Ephrin type-B receptor 3 (Homo sapiens) (UniProt P54753); experiment: EPHB3 Invitrogen selectivity data (BI); details: Compound concentration 3.0 uM
T3 sequence (whole entry): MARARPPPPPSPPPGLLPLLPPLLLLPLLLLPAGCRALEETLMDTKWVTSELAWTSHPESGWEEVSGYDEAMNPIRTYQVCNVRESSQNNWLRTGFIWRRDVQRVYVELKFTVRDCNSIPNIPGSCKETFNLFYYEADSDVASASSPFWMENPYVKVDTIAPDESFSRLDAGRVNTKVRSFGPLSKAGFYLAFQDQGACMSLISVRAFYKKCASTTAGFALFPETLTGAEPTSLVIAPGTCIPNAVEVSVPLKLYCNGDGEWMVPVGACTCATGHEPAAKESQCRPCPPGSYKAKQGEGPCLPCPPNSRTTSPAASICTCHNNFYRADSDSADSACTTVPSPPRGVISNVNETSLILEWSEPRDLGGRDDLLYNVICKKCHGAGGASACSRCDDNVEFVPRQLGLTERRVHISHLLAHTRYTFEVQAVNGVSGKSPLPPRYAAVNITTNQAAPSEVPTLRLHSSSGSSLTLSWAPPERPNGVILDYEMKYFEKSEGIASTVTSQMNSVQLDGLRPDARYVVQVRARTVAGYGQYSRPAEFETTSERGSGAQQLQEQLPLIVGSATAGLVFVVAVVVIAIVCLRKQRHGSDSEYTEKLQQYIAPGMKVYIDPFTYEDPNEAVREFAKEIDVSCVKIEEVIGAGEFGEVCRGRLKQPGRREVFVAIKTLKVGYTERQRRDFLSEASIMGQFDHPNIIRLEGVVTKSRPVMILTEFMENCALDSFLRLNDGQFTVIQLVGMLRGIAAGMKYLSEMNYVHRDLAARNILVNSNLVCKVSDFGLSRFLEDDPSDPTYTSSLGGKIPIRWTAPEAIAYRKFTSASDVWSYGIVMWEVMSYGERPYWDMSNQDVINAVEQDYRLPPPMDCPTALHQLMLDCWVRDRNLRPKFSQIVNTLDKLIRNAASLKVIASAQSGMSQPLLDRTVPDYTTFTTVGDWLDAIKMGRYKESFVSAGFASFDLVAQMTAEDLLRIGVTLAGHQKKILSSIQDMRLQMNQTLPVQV

[11] = target: Glutamate receptor ionotropic, NMDA 2A (Rattus norvegicus) (UniProt Q00959); experiment: NMDA/R Cerep selectivity data (BI); details: Compound concentration 20.0 uM
[12] = target: D(2) dopamine receptor (Homo sapiens) (UniProt P14416); experiment: D2SH_AGON Cerep selectivity data (BI); details: filed as agonist, Compound concentration 20.0 uM
[13] = target: T4, Activin receptor type-1B (Homo sapiens) (UniProt P36896); experiment: ACVR1B Invitrogen selectivity data (BI); details: Compound concentration 3.0 uM
T4 sequence (whole entry): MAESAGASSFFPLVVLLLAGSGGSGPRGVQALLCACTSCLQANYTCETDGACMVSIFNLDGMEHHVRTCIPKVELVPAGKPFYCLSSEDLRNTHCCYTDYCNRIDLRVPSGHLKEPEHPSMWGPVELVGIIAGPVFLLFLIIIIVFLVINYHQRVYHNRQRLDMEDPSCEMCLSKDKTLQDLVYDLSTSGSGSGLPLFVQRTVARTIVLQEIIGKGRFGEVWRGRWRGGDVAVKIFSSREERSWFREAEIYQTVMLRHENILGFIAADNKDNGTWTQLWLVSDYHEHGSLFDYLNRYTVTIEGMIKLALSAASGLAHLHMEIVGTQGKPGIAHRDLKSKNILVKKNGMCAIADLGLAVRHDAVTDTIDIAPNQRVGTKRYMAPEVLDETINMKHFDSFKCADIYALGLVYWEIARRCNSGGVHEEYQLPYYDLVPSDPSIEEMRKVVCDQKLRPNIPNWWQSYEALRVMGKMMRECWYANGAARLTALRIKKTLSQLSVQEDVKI

Measured: residual activity

Chain of Glutamate receptor ionotropic, NMDA 2A (Rattus norvegicus) (Q00959 23-1464 limits assumed): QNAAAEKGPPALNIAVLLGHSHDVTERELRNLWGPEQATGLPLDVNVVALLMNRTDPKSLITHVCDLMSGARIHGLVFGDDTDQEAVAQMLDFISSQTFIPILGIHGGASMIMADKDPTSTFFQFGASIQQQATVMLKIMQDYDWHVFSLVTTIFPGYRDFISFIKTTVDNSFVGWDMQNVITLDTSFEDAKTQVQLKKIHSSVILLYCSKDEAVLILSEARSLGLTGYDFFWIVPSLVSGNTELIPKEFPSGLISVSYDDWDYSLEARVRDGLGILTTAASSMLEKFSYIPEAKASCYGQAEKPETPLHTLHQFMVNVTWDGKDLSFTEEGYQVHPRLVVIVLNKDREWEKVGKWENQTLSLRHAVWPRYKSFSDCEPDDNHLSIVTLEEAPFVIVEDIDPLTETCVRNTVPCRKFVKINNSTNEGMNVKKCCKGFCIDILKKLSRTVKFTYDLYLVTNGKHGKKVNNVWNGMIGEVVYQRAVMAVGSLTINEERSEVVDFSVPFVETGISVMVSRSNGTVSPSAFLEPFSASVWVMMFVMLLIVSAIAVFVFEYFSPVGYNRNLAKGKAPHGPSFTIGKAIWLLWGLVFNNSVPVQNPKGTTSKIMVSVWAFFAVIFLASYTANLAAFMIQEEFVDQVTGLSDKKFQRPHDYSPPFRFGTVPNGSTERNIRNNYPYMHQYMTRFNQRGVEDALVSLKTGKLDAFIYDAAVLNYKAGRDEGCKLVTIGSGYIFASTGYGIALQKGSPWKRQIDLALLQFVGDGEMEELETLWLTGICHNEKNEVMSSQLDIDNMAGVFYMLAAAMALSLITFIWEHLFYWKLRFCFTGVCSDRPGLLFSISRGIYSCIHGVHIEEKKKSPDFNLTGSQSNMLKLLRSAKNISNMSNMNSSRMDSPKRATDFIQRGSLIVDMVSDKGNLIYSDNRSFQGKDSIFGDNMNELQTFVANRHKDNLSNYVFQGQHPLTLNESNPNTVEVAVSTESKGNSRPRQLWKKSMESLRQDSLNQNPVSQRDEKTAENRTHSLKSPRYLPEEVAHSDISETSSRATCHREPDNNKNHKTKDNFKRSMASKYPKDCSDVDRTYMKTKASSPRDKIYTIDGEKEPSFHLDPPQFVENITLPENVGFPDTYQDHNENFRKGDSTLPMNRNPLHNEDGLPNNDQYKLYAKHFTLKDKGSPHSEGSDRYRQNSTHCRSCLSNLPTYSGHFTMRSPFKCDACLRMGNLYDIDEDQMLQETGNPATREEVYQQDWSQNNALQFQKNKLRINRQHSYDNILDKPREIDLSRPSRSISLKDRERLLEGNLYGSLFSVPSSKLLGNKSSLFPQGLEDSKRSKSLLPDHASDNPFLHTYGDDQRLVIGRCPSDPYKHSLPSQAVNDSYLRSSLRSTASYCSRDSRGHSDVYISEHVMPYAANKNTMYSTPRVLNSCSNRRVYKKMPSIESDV
Chain of Mitogen-activated protein kinase 14 (Homo sapiens) (Q16539 whole entry): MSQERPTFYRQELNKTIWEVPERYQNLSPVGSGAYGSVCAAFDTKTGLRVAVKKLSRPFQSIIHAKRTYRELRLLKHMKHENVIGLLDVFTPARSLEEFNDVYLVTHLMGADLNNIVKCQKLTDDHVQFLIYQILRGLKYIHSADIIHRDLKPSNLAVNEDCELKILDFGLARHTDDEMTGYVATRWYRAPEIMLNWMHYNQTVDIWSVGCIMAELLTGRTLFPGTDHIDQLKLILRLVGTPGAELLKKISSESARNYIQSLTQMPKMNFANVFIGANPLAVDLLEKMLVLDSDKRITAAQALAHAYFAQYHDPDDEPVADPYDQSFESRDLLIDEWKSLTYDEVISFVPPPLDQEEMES
Chain of D(2) dopamine receptor (Homo sapiens) (P14416 whole entry): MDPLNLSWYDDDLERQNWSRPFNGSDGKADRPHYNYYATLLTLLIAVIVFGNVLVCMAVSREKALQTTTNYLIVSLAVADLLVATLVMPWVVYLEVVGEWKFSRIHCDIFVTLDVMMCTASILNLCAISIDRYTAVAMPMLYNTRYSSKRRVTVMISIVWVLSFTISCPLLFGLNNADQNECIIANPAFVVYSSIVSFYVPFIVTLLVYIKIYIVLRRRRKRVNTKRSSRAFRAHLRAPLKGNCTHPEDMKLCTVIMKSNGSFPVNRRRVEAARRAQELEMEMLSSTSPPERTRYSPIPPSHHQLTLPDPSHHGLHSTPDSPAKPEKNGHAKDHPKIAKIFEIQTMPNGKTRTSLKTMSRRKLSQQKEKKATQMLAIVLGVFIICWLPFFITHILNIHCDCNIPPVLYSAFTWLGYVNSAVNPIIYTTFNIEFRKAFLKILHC
Chain of Endothelin receptor type B (Homo sapiens) (P24530 whole entry): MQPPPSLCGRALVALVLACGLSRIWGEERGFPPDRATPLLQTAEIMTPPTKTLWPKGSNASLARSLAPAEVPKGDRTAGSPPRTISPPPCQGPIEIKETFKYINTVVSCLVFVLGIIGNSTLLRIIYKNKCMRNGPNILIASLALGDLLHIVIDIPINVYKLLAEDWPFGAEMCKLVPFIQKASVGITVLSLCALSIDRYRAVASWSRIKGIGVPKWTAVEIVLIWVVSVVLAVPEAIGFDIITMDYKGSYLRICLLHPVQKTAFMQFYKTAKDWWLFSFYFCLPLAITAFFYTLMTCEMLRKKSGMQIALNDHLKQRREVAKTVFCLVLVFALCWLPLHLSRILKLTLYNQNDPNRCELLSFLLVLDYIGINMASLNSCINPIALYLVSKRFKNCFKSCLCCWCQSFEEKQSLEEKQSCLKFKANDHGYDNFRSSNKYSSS
Chain of Serine/threonine-protein kinase PAK 2 (Homo sapiens) (Q13177 whole entry): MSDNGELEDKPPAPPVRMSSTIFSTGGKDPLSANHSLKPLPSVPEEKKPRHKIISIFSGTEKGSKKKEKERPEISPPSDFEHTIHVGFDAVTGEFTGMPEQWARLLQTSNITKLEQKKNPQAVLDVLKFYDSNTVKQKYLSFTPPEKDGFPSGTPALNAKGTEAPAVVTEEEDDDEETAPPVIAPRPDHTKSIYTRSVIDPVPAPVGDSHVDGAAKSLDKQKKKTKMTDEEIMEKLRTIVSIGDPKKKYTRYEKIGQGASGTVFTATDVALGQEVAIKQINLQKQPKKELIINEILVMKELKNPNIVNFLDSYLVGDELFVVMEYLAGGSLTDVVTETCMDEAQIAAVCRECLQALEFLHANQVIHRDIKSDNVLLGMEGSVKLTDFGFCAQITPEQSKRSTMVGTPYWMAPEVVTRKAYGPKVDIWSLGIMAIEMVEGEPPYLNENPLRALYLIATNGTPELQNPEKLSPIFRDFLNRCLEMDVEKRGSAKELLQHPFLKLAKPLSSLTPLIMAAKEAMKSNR
Chain of Platelet-activating factor receptor (Homo sapiens) (P25105 whole entry): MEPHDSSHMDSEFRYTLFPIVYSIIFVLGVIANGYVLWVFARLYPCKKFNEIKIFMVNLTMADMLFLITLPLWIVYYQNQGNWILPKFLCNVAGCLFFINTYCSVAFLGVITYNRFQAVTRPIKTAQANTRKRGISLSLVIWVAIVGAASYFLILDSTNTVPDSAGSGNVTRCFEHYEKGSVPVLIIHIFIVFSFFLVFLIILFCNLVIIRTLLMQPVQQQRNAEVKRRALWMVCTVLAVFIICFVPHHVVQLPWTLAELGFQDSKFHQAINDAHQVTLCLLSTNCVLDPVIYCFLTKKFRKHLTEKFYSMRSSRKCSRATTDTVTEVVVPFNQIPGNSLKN
Chain of Serine/threonine-protein kinase PLK1 (Homo sapiens) (P53350 whole entry): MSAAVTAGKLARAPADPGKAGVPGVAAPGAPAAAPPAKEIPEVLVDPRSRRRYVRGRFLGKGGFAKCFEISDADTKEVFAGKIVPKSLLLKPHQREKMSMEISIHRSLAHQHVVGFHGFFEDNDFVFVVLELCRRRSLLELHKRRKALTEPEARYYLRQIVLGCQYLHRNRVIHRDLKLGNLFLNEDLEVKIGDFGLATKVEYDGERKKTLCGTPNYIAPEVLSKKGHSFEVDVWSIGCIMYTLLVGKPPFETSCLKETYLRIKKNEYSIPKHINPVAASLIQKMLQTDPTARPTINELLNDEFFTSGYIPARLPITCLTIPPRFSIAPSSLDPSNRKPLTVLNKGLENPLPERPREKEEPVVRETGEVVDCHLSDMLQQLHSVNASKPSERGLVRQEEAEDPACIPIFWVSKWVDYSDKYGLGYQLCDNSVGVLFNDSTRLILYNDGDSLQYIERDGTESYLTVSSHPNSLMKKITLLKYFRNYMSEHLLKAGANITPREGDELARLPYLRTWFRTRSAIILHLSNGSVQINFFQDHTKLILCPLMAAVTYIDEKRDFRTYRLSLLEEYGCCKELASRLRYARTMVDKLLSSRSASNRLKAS

CN(C)C(=O)Cn1cc(-c2nc([C@@](C)(c3ccc(-c4cnc(N)nc4)cc3)C3CC3)no2)cn1 [BI 665915]
inactive: [1] 90% | [2] 94.5% | [3] 100% | [4] 104% | [5] 65% | [6] 100% | [7] 127% | [8] 109% | [9] 97% | [10] 97% | [11] 90% | [12] 95% | [13] 104%
